Measured values published in the supplement of paper PMC10307832.

What was measured:
Test in all cases: relative viability (nuclei count vs DMSO), 5 days (fraction); higher = more cells survive
GW-2580 + Palbociclib = compound: COC1=CC=C(C=C1)COC2=C(C=C(C=C2)CC3=CN=C(N=C3N)N)OC [GW-2580] + CC(=O)c1c(C)c2cnc(Nc3ccc(N4CCNCC4)cn3)nc2n(C2CCCC2)c1=O [Palbociclib] (partner 0.5 µM)
Method in brief: (§1)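 Nuclei were stained with Hoechst during a one-step fixation (final 0.05% Triton X-100, 1% formaldehyde, 1 ug/ml Hoechst) carried out 5 days after dosing, then counted on 4× images. The cells, lung cancer lines in 1536-well plates, had been dosed by pin tool the day after seeding with one drug alone or a fixed anchor-drug dose plus five library-drug doses (not always all listed) in √10 steps. Relative viability is the nuclei count in treated wells divided by that in vehicle wells, and each value is the median of duplicate plates.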

GW-2580 + Bortezomib = compound: COC1=CC=C(C=C1)COC2=C(C=C(C=C2)CC3=CN=C(N=C3N)N)OC [GW-2580] + CC(C)C[C@H](NC(=O)[C@H](Cc1ccccc1)NC(=O)c1cnccn1)B(O)O [Bortezomib] (partner 0.002 µM)
Method in brief: as §1

GW-2580 + Linsitinib = compound: COC1=CC=C(C=C1)COC2=C(C=C(C=C2)CC3=CN=C(N=C3N)N)OC [GW-2580] + C[C@]1(O)C[C@@H](c2nc(-c3ccc4ccc(-c5ccccc5)nc4c3)c3c(N)nccn32)C1 [Linsitinib] (partner 1 µM)
Method in brief: as §1

Fedratinib + Palbociclib = compound: Cc1cnc(Nc2ccc(OCCN3CCCC3)cc2)nc1Nc1cccc(S(=O)(=O)NC(C)(C)C)c1 [Fedratinib] + CC(=O)c1c(C)c2cnc(Nc3ccc(N4CCNCC4)cn3)nc2n(C2CCCC2)c1=O [Palbociclib] (partner 0.5 µM)
Method in brief: as §1

Fedratinib + Dasatinib = compound: Cc1cnc(Nc2ccc(OCCN3CCCC3)cc2)nc1Nc1cccc(S(=O)(=O)NC(C)(C)C)c1 [Fedratinib] + Cc1nc(Nc2ncc(C(=O)Nc3c(C)cccc3Cl)s2)cc(N2CCN(CCO)CC2)n1 [Dasatinib] (partner 0.075 µM)
Method in brief: as §1

Cell Line	relative viability (GW-2580 + Palbociclib; first compound 0.08 µM)	relative viability (GW-2580 + Palbociclib; first compound 0.8 µM)	relative viability (GW-2580 + Palbociclib; first compound 2.53 µM)	relative viability (GW-2580 + Palbociclib; first compound 8 µM)	relative viability (GW-2580 + Bortezomib; first compound 0.08 µM)	relative viability (GW-2580 + Bortezomib; first compound 0.8 µM)	relative viability (GW-2580 + Bortezomib; first compound 2.53 µM)	relative viability (GW-2580 + Bortezomib; first compound 8 µM)	relative viability (GW-2580 + Linsitinib; first compound 0.08 µM)	relative viability (GW-2580 + Linsitinib; first compound 0.8 µM)	relative viability (GW-2580 + Linsitinib; first compound 2.53 µM)	relative viability (GW-2580 + Linsitinib; first compound 8 µM)	relative viability (Fedratinib + Palbociclib; first compound 0.1 µM)	relative viability (Fedratinib + Palbociclib; first compound 0.3162 µM)	relative viability (Fedratinib + Palbociclib; first compound 1 µM)	relative viability (Fedratinib + Dasatinib; first compound 0.1 µM)	relative viability (Fedratinib + Dasatinib; first compound 0.3162 µM)	relative viability (Fedratinib + Dasatinib; first compound 1 µM)
201T	0.388	0.4	0.375	0.351	1.15	1.12	1.11	1.14	1.06	1.14	1.14	1.06	0.362	0.342	0.33	0.515	0.571	0.545
A549	–	–	–	–	–	–	–	–	0.678	0.701	0.501	0.602	–	–	–	–	–	–
A-427	0.521	0.534	0.52	0.529	1.14	1.13	0.915	0.878	1.18	1.16	1.01	1.08	0.505	0.492	0.487	0.74	0.733	0.249
ABC-1	0.74	0.768	0.503	0.696	0.295	0.324	0.287	0.306	0.791	0.816	0.883	0.718	0.691	0.704	0.609	0.499	0.629	0.569
BEN	0.491	0.507	0.471	0.491	0.674	0.879	0.55	0.799	1.08	1.04	0.816	0.93	0.473	0.429	0.471	0.36	0.312	0.294
CAL-12T	0.639	0.416	0.517	0.413	0.901	1.28	0.884	1.16	0.985	0.815	0.917	0.762	0.295	0.411	0.446	0.47	0.277	0.285
COR-L23	0.264	0.328	0.302	0.288	1.2	1.21	0.929	1.2	0.987	1.2	0.946	1.02	0.303	0.26	0.131	0.487	0.484	0.512
COR-L 105	0.434	0.398	0.413	0.39	0.829	0.99	0.67	0.797	1.03	0.807	0.929	1.01	0.393	0.41	0.405	0.29	0.319	0.287
Calu-6	–	–	–	–	1.06	1.09	0.948	1.05	1.11	0.938	0.913	1.02	–	–	–	–	–	–
ChaGo-K-1	0.927	0.943	0.88	0.895	0.996	1.09	0.989	1	–	–	–	–	0.966	0.814	0.961	0.515	0.437	0.496
EBC-1	–	–	–	–	0.609	0.572	0.492	0.554	1.27	0.991	0.871	0.743	–	–	–	–	–	–
